These results are taken from patent US20110039873A1, “SUBSTITUTED PYRAZOLO[1,5-a] PYRIDINE COMPOUNDS HAVING MULTI-TARGET ACTIVITY” (priority 2009, published 2011).

For series [1], the target named is T1, recombinant human phosphodiesterase 10A1 enzyme (Homo sapiens, UniProt Q9Y233).
T1 construct: purchased BPS Biosciences; host or cells: Baculovirus infected Sf9 cells
The series is described as follows: PDE10 inhibition assay (PDELight). It is filed as biochemical. To be noted: for IC50: 1 uM cAMP, read-out: PDE 10 Inhibition (IC50 in μM); for PDE-10 inhibition (in words): Table 2.

Series [2] concerns the target T2, recombinant full length human JNK3 enzyme (Homo sapiens, UniProt P53779).
T2 construct: recombinant full length human JNK2 or JNK3 enzyme; purchased Upstate; host or cells: Sf21 cells
Nature of the series: JNK 3 inhibition assay (ATP depletion, luciferase). It is filed as biochemical. Conditions: for IC50: 10 uM ATP, ATF2 substrate; for JNK-3 inhibition (in words): see Table 2. The method, then:
In a 96-well plate, recombinant full length human JNK2 or JNK3 enzyme (40 ng) expressed in Sf21 cells (Upstate) was incubated with the substrate ATF2 (3 uM) for 1 hour in the presence of 10 uM ATP. […] The ATP levels were quantified using luciferase with luminescence read on a Victor Light 1420 luminometer. IC50 calculations were plotted using a nonlinear regression curve fit.

In series [3] the test system is Mouse BV-2 microglial cells. Nature of the series: BV-2 glial cell assay (TNF-α and MCP-1 by Luminex). It is filed as cell-based. Conditions: for EC50: Mus musculus, BV-2, LPS and IFN-γ activated, 20 hours; for inhibiting glial cell activation (TNF-α and/or MCP-1): Table 3. The method, then: Mouse BV-2 microglial cells were seeded on 96-well plates at a concentration of 3×10^4 cells/well. Cells were activated with 100 ng/mL LPS and IFN-γ (100 ng/mL) in the presence or absence of test compounds (0-30 uM). Following incubation for 20 hours, cells were spun down and supernatant collected. The supernatant was analyzed via Luminex for the presence of TNF-α and MCP-1.

Series [4] has as its system phosphorylated c-Jun (serine-73). The series is described as follows: Phosphorylated c-JUN (A-beta), E18 rat neuronal cells. Conditions: Amyloid Beta peptide 30 uM, 3 hours, read-out: p-cJun Abeta E18 (EC50 in μM). The format is cell-based. The method, then: In 96-well plates either human SH-SY5Y neuroblastoma cells at 2.5×10^4 cells/well or E18 rat neuronal cells at 1.5×10^4 cells/well were seeded. To each well the following was added, Amyloid Beta peptide 1-25 (source) at a concentration of 30 uM, retinoic acid (10 uM) and test compounds (0-30 uM) and incubated for 3 hours. Supernatant was discarded and cells were fixed with 4% paraformaldehyde (100 ul/well) for 20 minutes. FACE cell based ELISA assay (Active Motif) was performed specific for quantifying phosphorlyated c-Jun (serine-73).

The test system is the same in series [5]. The series is described as follows: Phosphorylated c-JUN (A-beta), SH-SY5Y. It is filed as cell-based. Conditions: Homo sapiens, Amyloid Beta peptide 30 uM, 3 hours, read-out: p-cJun Abeta SH-SY5Y (EC50 in μM). The method, then:
In 96-well plates either human SH-SY5Y neuroblastoma cells at 2.5×10^4 cells/well or E18 rat neuronal cells at 1.5×10^4 cells/well were seeded. […] Supernatant was discarded and cells were fixed with 4% paraformaldehyde (100 ul/well) for 20 minutes. FACE cell based ELISA assay (Active Motif) was performed specific for quantifying phosphorlyated c-Jun (serine-73).

Series [6] shares this test system. Nature of the series: Phosphorylated c-JUN (6-OHDA), SH-SY5Y. The format is cell-based. To be noted: Homo sapiens, 50 uM 6-hydroxydopamine, 1.5 hours, read-out: p-cJun 6-OHDA SH-SY5Y (EC50 in μM). The method, then: Human SH-SY5Y neuroblastoma cells were cultured in 96-well plates with 2.5×10^4 cells/well and incubated for 48 hours. 6-hydroxydopamine was added at a concentration of 50 uM in the presence or absence of test compounds (0-30 uM) and incubated for 1.5 hours. Supernatant was discarded and cells were fixed with 4% paraformaldehyde (100 ul/well) for 20 minutes. FACE cell based ELISA assay (Active Motif) was performed specific for quantifying phosphorlyated c-Jun (serine-73).

Series [7] deals with T3, recombinant full length human JNK2 enzyme (Homo sapiens, UniProt P45984).
T3 construct: recombinant full length human JNK2 or JNK3 enzyme; purchased Upstate; host or cells: Sf21 cells
T3 sequence (P45984 whole entry): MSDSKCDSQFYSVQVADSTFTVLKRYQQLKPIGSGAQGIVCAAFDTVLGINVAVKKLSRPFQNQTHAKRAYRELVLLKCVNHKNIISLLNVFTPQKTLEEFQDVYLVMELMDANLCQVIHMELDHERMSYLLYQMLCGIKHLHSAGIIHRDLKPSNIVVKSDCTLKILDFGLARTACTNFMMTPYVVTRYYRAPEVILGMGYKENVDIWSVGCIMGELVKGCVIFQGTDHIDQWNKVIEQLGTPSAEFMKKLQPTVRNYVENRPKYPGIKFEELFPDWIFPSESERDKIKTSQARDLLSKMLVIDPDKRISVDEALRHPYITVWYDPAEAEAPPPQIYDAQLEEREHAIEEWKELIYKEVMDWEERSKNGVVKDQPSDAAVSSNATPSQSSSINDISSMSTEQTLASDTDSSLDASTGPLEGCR
Nature of the series: JNK 2 inhibition assay (ATP depletion, luciferase). The format is biochemical. The method, then:
In a 96-well plate, recombinant full length human JNK2 or JNK3 enzyme (40 ng) expressed in Sf21 cells (Upstate) was incubated with the substrate ATF2 (3 uM) for 1 hour in the presence of 10 uM ATP. […] IC50 calculations were plotted using a nonlinear regression curve fit.

Series [8] concerns rat chronic constriction injury (CCI) model of neuropathic pain. The series is described as follows: Rat chronic constriction injury (CCI) model of neuropathic pain. It is filed as in vivo. To be noted: IP, dose not given; 50% paw withdrawal threshold, von Frey.
The target in series [9] is T4, catalytic domain of phosphodiesterase 4B enzyme cloned from human brain (Homo sapiens, UniProt Q07343).
T4 construct: the catalytic domain of phosphodiesterase 4B enzyme; purchased Scottish Biomedical
T4 sequence (Q07343 330-659 limits assumed): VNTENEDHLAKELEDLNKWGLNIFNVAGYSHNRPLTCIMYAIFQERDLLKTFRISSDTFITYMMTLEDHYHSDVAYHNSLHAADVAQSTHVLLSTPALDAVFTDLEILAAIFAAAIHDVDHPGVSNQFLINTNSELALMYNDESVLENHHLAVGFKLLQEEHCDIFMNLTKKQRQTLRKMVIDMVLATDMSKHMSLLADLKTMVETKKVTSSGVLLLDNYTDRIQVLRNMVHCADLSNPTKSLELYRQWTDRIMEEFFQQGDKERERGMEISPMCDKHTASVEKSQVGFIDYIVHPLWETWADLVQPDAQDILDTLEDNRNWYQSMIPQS
Nature of the series: PDE4 inhibition assay (PDELight). It is filed as biochemical. To be noted: for IC50: 5 uM cAMP, read-out: PDE 4 Inhibition (IC50 in μM). A digest of the protocol:
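Human PDE4B catalytic domain (40 mU/well) incubated with 5 uM cAMP. AMP formed was converted to ATP and measured by luciferase luminescence (PDELight). IC50 derived by nonlinear regression curve fit.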

Series [10] in a line: Oral pharmacokinetic evaluation. Conditions: Sprague-Dawley rats; for AUC(0-t) / Cmax / half-life: male, rat, 15 mg/kg oral gavage, plasma; for AUC(0-t): read-out: Oral PK AUClast; for Cmax: read-out: Oral PK Cmax; for half-life: Sprague-Dawley, po, 15 mg/kg, read-out: Oral PK T½ (converted). The format is in vivo, rat. The method, then: Three male Sprague-Dawley rats were dosed orally via gavage with 15 mg/kg of test compound. Serial blood samples were collected from the jugular vein at 5, 15, and 30 min, 1, 3, and 6 hours post dosing. Samples were processed for plasma via centrifugation and plasma samples were stored frozen prior to analysis via a sensitive and specific HPLC/MS/MS method. PK parameters were calculated using WinNonLin (Pharsight).

For series [11], the system named is at least one of JNK 3 or JNK 2 and at least one of PDE 10 or PDE 4. The series is described as follows: Dual inhibition (phosphodiesterase and JNK). It is filed as biochemical, human. Conditions: IC50 JNK 3 or JNK 2 less than about 5.00 μM and PDE 10 or PDE 4 less than about 20.0 or 30.0 μM. The method, then:
In a 96-well plate, recombinant full length human JNK2 or JNK3 enzyme (40 ng) expressed in Sf21 cells (Upstate) was incubated with the substrate ATF2 (3 uM) for 1 hour in the presence of 10 uM ATP. The amount of ATP depletion by the JNK enzyme is measured in the presence or absence of test compounds (0-30 uM). The ATP levels were quantified using luciferase with luminescence read on a Victor Light 1420 luminometer. IC50 calculations were plotted using a nonlinear regression curve fit.
(§1) In a 96-well plate, the catalytic domain of phosphodiesterase 4B enzyme (40 mU/well) cloned from human brain (Scottish Biomedical) was combined with 5 uM cAMP substrate (Sigma). Test compounds (0-30 uM) or vehicle (0.5% DMSO) were added to the enzyme/substrate and incubated 1 hour. Using a PDELight® kit (Cambrex), the amount of AMP produced in the reaction from the hydrolysis of cAMP was quantified using PDELight AMP Detection Reagent which converts the AMP directly to ATP. The assay uses luciferase, which catalyses the formation of light from the newly formed ATP and luciferin. The luminescence was read on a Victor Light 1420 luminometer. IC50 calculations were plotted using a nonlinear regression curve fit.
as §1, with “plate, recombinant human” for “plate, the catalytic domain of”, “phosphodiesterase 10A1” for “phosphodiesterase 4B”, “enzyme (10 U/well) expressed in Baculovirus infected Sf9 cells (BPS Biosciences)” for “enzyme (40 mU/well) cloned from human brain (Scottish Biomedical)”, “with 1” for “with 5”

[12] abbreviates: read-out: MCP-1 BV-2 (EC50 in μM).
Where [13] appears, read: read-out: TNF-a BV-2 (EC50 in μM).
Setting [14] is: 10 uM ATP, ATF2 substrate, read-out: JNK 2 Inhibition (IC50 in μM).
Setting [15] is: read-out: IC50 value based upon a JNK 2 inhibition assay (range given).

Like-named read-outs stand apart in the source and are kept apart here. Where only a bound is given, the exact number is not on record here.

T2 sequence (P53779 whole entry): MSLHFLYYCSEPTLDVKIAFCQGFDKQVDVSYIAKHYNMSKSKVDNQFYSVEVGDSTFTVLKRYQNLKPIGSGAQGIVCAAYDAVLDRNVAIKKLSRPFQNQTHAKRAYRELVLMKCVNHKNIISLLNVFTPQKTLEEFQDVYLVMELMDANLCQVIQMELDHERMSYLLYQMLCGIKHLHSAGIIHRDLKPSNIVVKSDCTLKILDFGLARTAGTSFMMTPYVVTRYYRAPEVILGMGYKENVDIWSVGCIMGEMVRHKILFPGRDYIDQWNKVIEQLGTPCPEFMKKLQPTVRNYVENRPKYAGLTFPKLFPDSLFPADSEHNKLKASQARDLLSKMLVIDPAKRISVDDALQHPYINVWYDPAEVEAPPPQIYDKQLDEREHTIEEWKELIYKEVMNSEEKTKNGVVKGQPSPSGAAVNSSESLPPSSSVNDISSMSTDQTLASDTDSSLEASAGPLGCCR
T1 sequence (Q9Y233 1-779 isoform Q9Y233-1): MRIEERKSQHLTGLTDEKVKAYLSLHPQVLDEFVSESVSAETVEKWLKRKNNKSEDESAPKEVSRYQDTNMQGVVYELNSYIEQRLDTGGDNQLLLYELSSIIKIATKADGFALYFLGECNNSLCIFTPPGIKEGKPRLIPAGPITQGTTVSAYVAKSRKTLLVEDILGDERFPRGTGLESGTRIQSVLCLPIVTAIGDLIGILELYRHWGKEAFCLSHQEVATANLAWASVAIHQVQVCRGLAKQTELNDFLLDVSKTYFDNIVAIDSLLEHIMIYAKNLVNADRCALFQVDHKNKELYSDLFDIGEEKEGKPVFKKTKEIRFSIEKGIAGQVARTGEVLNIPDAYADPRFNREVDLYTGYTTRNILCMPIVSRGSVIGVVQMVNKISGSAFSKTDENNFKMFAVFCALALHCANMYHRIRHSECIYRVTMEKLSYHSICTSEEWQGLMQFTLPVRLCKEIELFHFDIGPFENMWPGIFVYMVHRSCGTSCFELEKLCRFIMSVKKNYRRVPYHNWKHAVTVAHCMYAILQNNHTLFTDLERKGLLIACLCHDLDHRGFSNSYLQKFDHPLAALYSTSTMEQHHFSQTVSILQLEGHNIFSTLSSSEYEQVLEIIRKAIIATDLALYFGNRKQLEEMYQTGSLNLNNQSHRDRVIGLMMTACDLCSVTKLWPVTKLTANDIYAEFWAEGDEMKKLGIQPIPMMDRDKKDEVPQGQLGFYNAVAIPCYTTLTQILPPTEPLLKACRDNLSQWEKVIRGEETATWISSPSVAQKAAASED

Regarding `CC(C)C(=O)c1c(C(C)C)nn2ccccc12` [AV411, 1-(2-isopropylpyrazolo[1,5-a]pyridin-3-yl)-2-methylpropan-1-one, reference compound], the IC50 in series [1] is 6.3 µM; in [2], over 100 µM; in series [7] (setting [14]), over 100 µM. For the same compound, the EC50 in series [3] (setting [12]) was 42 µM; in series [3] (setting [13]), 2.7 µM; in series [4] it was over 30 µM; in series [5] it was 3.8 µM; in series [6], over 30 µM.
As to `CCCNc1nccc(-c2c(C(C)C)nn3ccccc23)n1` [AV1153, 4-(2-isopropylpyrazolo[1,5-a]pyridin-3-yl)-N-propylpyrimidin-2-amine], the IC50 was 8.9 µM in series [1], 4.1 µM in series [2], 11.5 µM in [9] and 0.01 to 2 µM in [7] (setting [15]). In [1], the “PDE-10 inhibition (in words)” value is listed as “particularly effective”. Further, the “IP CCI efficacy (Change in grams)” value in series [8] came out at 1.85 grams. Further, in series [9], the “PDE-4 inhibition (in words)” value is “particularly effective”. In addition, the EC50 was 3.6 µM in series [4], over 30 µM in series [5] and over 30 µM in series [6]. Also, the AUC(0-t) in series [10] is 32 ng·h/mL. For the same compound, in series [10], the Cmax stood at 13 ng/mL. Also, the “dual inhibition (phosphodiesterase and JNK)” value (“dual inhibition” for short) in [11] was “effective dual inhibitors”.
With `CC(C)c1nn2ccccc2c1-c1ccnc(NC2CCCC2)n1` [AV1154, N-cyclopentyl-4-(2-isopropylpyrazolo[1,5-a]pyridin-3-yl)pyrimidin-2-amine], the IC50 was 3 µM in [1], 6 µM in series [2] and 7.1 µM in [9]. The “PDE-10 inhibition (in words)” value in series [1] is recorded as “particularly effective”. Also, in series [8], the “IP CCI efficacy (Change in grams)” value is on record as 0 grams. In addition, in series [9], the “PDE-4 inhibition (in words)” value is given as “particularly effective”. The values for the EC50 in series [4], in [5] and in series [6] were 13 µM, over 10 µM and 3.4 µM, respectively. For the same compound, the “dual inhibition” value in series [11] is given as “effective dual inhibitors”.
Take `CCCNc1nccc(-c2cnn3ccccc23)n1` [AV1166, N-propyl-4-(pyrazolo[1,5-a]pyridin-3-yl)pyrimidin-2-amine]: the IC50 in [1] is 38.2 µM; in [2] it was 0.4 µM; in series [9], 16.5 µM; in [7] (setting [14]), 1.3 µM; in series [7] (setting [15]), 0.01 to 2 µM. Moreover, the “PDE-10 inhibition (in words)” value in series [1] is listed as “particularly effective”. Further, the “JNK-3 inhibition (in words)” value in series [2] is “particularly effective”. In addition, the EC50 amounted to 1.1 µM in series [3] (setting [12]); 0.9 µM in series [3] (setting [13]); 37 µM in series [4]; 11 µM in series [5]; 1.4 µM in series [6]. Also, the “inhibiting glial cell activation (TNF-α and/or MCP-1)” value (from here on “inhibiting glial cell activation”) in series [3] is given as “Particularly effective”. Further, in [11], the “dual inhibition” value is on record as “effective dual inhibitors”.
`Fc1cccc(-c2nn3ccccc3c2-c2ccnc(NC3CCCC3)n2)c1` [AV1180, N-cyclopentyl-4-(2-(3-fluorophenyl)pyrazolo[1,5-a]pyridin-3-yl)pyrimidin-2-amine]: the IC50 in series [1] turned out to be 53.5 µM; in [2], 0.3 µM; in series [9], 16.4 µM. For the same compound, in series [2], the “JNK-3 inhibition (in words)” value is “particularly effective”. Moreover, in series [8], the “IP CCI efficacy (Change in grams)” value came out at 0 grams. Further, the EC50 in [3] (setting [12]) is 1.6 µM; in [3] (setting [13]), 0.04 µM; in series [5], 4.1 µM; in series [6], over 30 µM. In addition, the “inhibiting glial cell activation” value in series [3] is reported as “Particularly effective”. Also, the “half life following oral dosing (in words)” value in [10] (oral) is recorded as “particularly prolonged half lives”. Besides, in [10], the half-life is 1.8 h. For the same compound, the AUC(0-t) in series [10] stood at 160 ng·h/mL. In addition, in series [10], the Cmax came to 58 ng/mL. Also, in series [11], the “dual inhibition” value is “effective dual inhibitors”.
Turning to `Cc1cccc2c(-c3ccnc(NC(C)C)n3)cnn12` [AV1183, N-isopropyl-4-(7-methylpyrazolo[1,5-a]pyridin-3-yl)pyrimidin-2-amine], the IC50 is 35 µM in [1], 0.2 µM in series [2] and 6.2 µM in [9]. Also, the “JNK-3 inhibition (in words)” value in series [2] is on record as “particularly effective”. Further, in [8], the “IP CCI efficacy (Change in grams)” value came out at 0.3 grams. The “PDE-4 inhibition (in words)” value in series [9] was “particularly effective”. In addition, the EC50 in [3] (setting [12]) came out at 1.2 µM; in series [3] (setting [13]), 1.1 µM; in series [5], 5.4 µM; in series [6], 0.3 µM. Moreover, the “inhibiting glial cell activation” value in [3] is “Particularly effective”. Also, the half-life in series [10] is 1.1 h. Further, the AUC(0-t) in series [10] came out at 35 ng·h/mL. In addition, in [10], the Cmax was found to be 56 ng/mL. Also, in [11], the “dual inhibition” value is given as “effective dual inhibitors”.
Take `Oc1c2ccccc2c2c3c(cccc13)N=N2` [SP600125, reference compound]: the half-inhibitory concentration (IC50) in series [2] worked out at 0.2 µM. The “IP CCI efficacy (Change in grams)” value in series [8] amounted to 0.5 grams. Besides, the EC50 in series [4] amounted to 7.6 µM; in [6], 0.6 µM.
